Data published in the NIST ThermoML archive (doi:10.1021/je060271a).

Conditions: 343.15 K, Liquid, Vibrating tube method

CCCCCC(=O)OCC(COC(=O)CCCCC)(COC(=O)CCCCC)COC(=O)CCCCC [pentaerythritol tetrahexanoate]
Conditions	mass density [kg/m3]
13093 kPa	966.8
13131 kPa	966.9
13169 kPa	966.9
13207 kPa	966.9
13245 kPa	966.9
13290 kPa	967
13328 kPa	967.2
13373 kPa	967
13409 kPa	967.1
13559 kPa	967.3
13566 kPa	967.3
13908 kPa	967.5
13933 kPa	967.3
13985 kPa	967.4
14253 kPa	967.7
14284 kPa	967.7
14335 kPa	967.9
14361 kPa	967.8
14387 kPa	967.8
14418 kPa	967.8
14469 kPa	967.9
14756 kPa	968.1
14783 kPa	968.1
14816 kPa	968.1
14843 kPa	968.2
15289 kPa	968.4
15317 kPa	968.4
15350 kPa	968.4
15379 kPa	968.4
15408 kPa	968.4
15436 kPa	968.6
15470 kPa	968.5
15498 kPa	968.6
15525 kPa	968.6
15558 kPa	968.6
15584 kPa	968.6
15615 kPa	968.6
16026 kPa	968.9
16081 kPa	968.9
16112 kPa	968.9
16138 kPa	969
16163 kPa	969
16189 kPa	969.1
16220 kPa	969
16246 kPa	969.1
16272 kPa	969
16303 kPa	969
16328 kPa	969.2
16525 kPa	969.2
16552 kPa	969.4
16584 kPa	969.3
16611 kPa	969.4
16638 kPa	969.2
16666 kPa	969.3
16699 kPa	969.4
16726 kPa	969.4
16754 kPa	969.4
16782 kPa	969.5
16815 kPa	969.5
16844 kPa	969.5
17457 kPa	970
17484 kPa	970
17516 kPa	970
17543 kPa	970
17571 kPa	970
17599 kPa	969.9
17632 kPa	970
17686 kPa	970
17714 kPa	970.1
17747 kPa	970.3
17775 kPa	970.2
17808 kPa	970.2
17836 kPa	970
17864 kPa	970.2
17898 kPa	970.1
17926 kPa	970.3
17954 kPa	970.3
17983 kPa	970.2
18017 kPa	970.3
18046 kPa	970.3
18080 kPa	970.3
18109 kPa	970.3
18137 kPa	970.4
18165 kPa	970.3
18200 kPa	970.4
18228 kPa	970.5
18261 kPa	970.5
18289 kPa	970.4
18316 kPa	970.6
18346 kPa	970.5
18370 kPa	970.6
18394 kPa	970.5
18418 kPa	970.6
18446 kPa	970.5
18471 kPa	970.6
18495 kPa	970.7
18524 kPa	970.7
18656 kPa	970.8
18681 kPa	970.8
18706 kPa	970.8
18732 kPa	970.7
18761 kPa	970.8
18787 kPa	970.9
18812 kPa	970.8
18842 kPa	970.9
18867 kPa	970.9
18923 kPa	971
18949 kPa	970.9
18975 kPa	971.1
19008 kPa	971
19034 kPa	971
19060 kPa	971.1
19085 kPa	971
19632 kPa	971.4
19654 kPa	971.4
19677 kPa	971.5
19700 kPa	971.5
19726 kPa	971.4
19747 kPa	971.4
19768 kPa	971.5
19790 kPa	971.5
19809 kPa	971.6
19830 kPa	971.5
19850 kPa	971.6
20110 kPa	971.8
20121 kPa	971.8
20124 kPa	971.8
20125 kPa	971.7
20126 kPa	971.8
20127 kPa	971.9
20128 kPa	971.8
21458 kPa	972.6
21485 kPa	972.7
21513 kPa	972.7
21545 kPa	972.7
21573 kPa	972.7
21600 kPa	972.8
21630 kPa	972.7
21654 kPa	972.8
21678 kPa	972.6
21708 kPa	972.7
21835 kPa	972.9
21865 kPa	972.9
21890 kPa	973
21915 kPa	973
